Patent publication US8778941B2, “TRPM8 antagonists and their use in treatments” (AMGEN Inc., priority 2011, dated 2014)

Biological target: T1, human TRPM8 (Homo sapiens, UniProt Q7Z2W7)
T1 construct: expressed in transfected cells; host or cells: Chinese hamster ovary (CHO) cells, T-REx tetracycline-inducible expression system (Invitrogen), co-transfected with pcDNA3.1 jellyfish aequorin
Test: Luminescence readout assay for measuring intracellular calcium (aequorin), hTRPM8 antagonism
Format: cell-based
Details: CHO cell line expressing human TRPM8 and aequorin; activation by icilin, L-menthol or cold buffer (table does not say which)
Experimental: Luminescence Readout Assay for Measuring Intracellular Calcium.
A stable Chinese hamster ovary cell line expressing human TRPM8 was generated using tetracycline inducible T-REx™ expression system from Invitrogen, Inc. (Carlsbad, Calif.). […] Twenty four hours before the assay, cells were seeded in 96-well plates and TRPM8 expression was induced with 0.5 μg/mL tetracycline. […] Potential antagonists were added 2.5 min prior to the addition of agonist, […], 100 µM L-menthol, or 1 min prior to the addition of cold buffer (<10° C.). The luminescence was measured by a CCD camera based FLASH-luminometer built by Amgen, Inc. A cooling device attached to FLASH luminometer was used for cold activation.

T1 sequence (Q7Z2W7 whole entry): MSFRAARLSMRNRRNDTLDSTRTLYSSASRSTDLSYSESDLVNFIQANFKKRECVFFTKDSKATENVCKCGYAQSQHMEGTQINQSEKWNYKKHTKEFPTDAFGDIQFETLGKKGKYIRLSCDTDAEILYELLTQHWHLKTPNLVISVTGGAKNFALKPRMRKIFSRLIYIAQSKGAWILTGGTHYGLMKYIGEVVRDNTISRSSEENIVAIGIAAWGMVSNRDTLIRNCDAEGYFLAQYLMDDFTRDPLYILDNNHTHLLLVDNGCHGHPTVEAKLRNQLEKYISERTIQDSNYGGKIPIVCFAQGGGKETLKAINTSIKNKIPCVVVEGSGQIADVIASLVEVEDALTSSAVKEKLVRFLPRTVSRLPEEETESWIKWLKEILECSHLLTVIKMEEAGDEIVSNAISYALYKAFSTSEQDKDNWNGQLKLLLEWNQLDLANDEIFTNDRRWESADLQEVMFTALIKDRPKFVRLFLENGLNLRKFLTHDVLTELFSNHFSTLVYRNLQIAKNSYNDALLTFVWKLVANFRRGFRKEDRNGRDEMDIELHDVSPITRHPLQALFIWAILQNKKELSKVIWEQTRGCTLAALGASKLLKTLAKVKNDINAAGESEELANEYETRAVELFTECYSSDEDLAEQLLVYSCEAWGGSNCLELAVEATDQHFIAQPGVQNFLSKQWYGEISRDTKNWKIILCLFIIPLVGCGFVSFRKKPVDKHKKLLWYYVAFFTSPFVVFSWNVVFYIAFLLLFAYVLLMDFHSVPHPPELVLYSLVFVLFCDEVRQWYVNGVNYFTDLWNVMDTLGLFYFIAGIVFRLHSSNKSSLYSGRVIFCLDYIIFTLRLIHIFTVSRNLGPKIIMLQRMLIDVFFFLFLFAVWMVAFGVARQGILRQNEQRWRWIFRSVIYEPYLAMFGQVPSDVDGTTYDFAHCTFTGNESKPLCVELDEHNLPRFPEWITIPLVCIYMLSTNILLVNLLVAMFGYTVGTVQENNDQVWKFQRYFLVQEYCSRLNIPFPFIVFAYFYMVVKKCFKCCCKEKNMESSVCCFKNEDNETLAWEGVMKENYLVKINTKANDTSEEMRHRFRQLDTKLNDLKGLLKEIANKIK

| Compound | IC50 |
| --- | --- |
| O=C(Nc1cccnc1)NC(c1ccc(C(F)(F)F)cc1)c1cccnc1Br (centres unmarked) [Example 114, 1-((2-bromopyridin-3-yl)(4-(trifluoro-methyl)-phenyl)-methyl)-3-(pyridin-3-yl)-urea (2,2,2-trifluoro-acetate)] | 886 nM |
| O=C(Nc1cccc([N+](=O)[O-])c1)N[C@@H](c1ccc(C(F)(F)F)cc1)c1ncccc1C(F)(F)F [Example 100, (S)-1-(3-nitrophenyl)-3-((4-(trifluoro-methyl)-phenyl)(3-(trifluoro-methyl)-pyridin-2-yl)-methyl)urea (2,2,2-trifluoro-acetate)] | 142 nM |
| O=C(NC(=O)Oc1ccccc1)N[C@@H](c1ccc(C(F)(F)F)cc1)c1ncccc1C(F)(F)F [Example 35, (S)-1-(phenyl-formate)-3-((4-(trifluoro-methyl)-phenyl)(3-(trifluoro-methyl)-pyridin-2-yl)-methyl)urea (2,2,2-trifluoro-acetate)] | 1710 nM |
| COC(=O)c1cccc(NC(=O)N[C@@H](c2ccc(C(F)(F)F)cc2)c2ncccc2C(F)(F)F)c1 [Example 102, (S)-methyl 3-(3-((4-(trifluoro-methyl)-phenyl)(3-(trifluoro-methyl)-pyridin-2-yl)-methyl)-ureido)-benzoate (2,2,2-trifluoro-acetate)] | 262 nM |
| O=C(Nc1ccc(F)c([N+](=O)[O-])c1)N[C@@H](c1ccc(C(F)(F)F)cc1)c1ncccc1C(F)(F)F [Example 139, (S)-1-(4-fluoro-3-nitrophenyl)-3-((4-(trifluoro-methyl)-phenyl)(3-(trifluoro-methyl)-pyridin-2-yl)-methyl)urea (2,2,2-trifluoro-acetate)] | 1310 nM |
| Cc1ccc(C)c(NC(=O)N[C@@H](c2ccc(C(F)(F)F)cc2)c2ncccc2C(F)(F)F)c1 [Example 108] | 829 nM |
| Cc1c(NC(=O)N[C@@H](c2ccc(C(F)(F)F)cc2)c2ncccc2C(F)(F)F)cccc1[N+](=O)[O-] [Example 142, (S)-1-(2-methyl-3-nitrophenyl)-3-((4-(trifluoro-methyl)-phenyl)(3-(trifluoro-methyl)-pyridin-2-yl)-methyl)urea (2,2,2-trifluoro-acetate)] | 2180 nM |
| O=C(Nc1cccnc1)N[C@@H](c1ccc2ccccc2c1)c1ncccc1C(F)(F)F [Example 11] | 101 nM |
| O=C(Nc1ccc2occc2c1)N[C@@H](c1ccc(C(F)(F)F)cc1)c1ncccc1C(F)(F)F [Example 39, (S)-1-(benzofuran-5-yl)-3-((4-(trifluoro-methyl)-phenyl)(3-(trifluoro-methyl)-pyridin-2-yl)-methyl)urea (2,2,2-trifluoro-acetate)] | 4090 nM |

The remaining compounds from weak to strong by IC50, led by results:

| IC50 | Compound |
| --- | --- |
| 2880 nM | O=C(Nc1cc[nH]c(=O)c1)N[C@@H](c1ccc(C(F)(F)F)cc1)c1ncccc1F [Example 164, (S)-1-((3-fluoropyridin-2-yl)(4-(trifluoro-methyl)-phenyl)-methyl)-3-(2-oxo-1,2-dihydropyridin-4-yl)urea] |
| 2000 nM | O=C(N[C@@H](c1ccc(C(F)(F)F)cc1)c1ncccc1C(F)(F)F)N[C@H]1CCc2ccccc21 [Example 129, 1-((S)-2,3-dihydro-1H-inden-1-yl)-3-((S)-(4-(trifluoro-methyl)-phenyl)(3-(trifluoro-methyl)-pyridin-2-yl)-methyl)urea (2,2,2-trifluoro-acetate)] |
| 1750 nM | O=C(Nc1cccnc1)N[C@H](c1cccc(C(F)(F)F)c1)c1ccc(C(F)(F)F)c(F)c1 [Example 117, (R)-1-((3-fluoro-4-(trifluoro-methyl)-phenyl)(3-(trifluoro-methyl)-phenyl)-methyl)-3-(pyridin-3-yl)-urea (2,2,2-trifluoro-acetate)] |
| 1500 nM | COC(=O)[C@H](C)NC(=O)N[C@@H](c1ccc(C(F)(F)F)cc1)c1ncccc1C(F)(F)F [Example 79, (S)-methyl-2-(3-((S)-(4-(trifluoro-methyl)-phenyl)(3-(trifluoro-methyl)-pyridin-2-yl)-methyl)-ureido)-propanoate (2,2,2-trifluoro-acetate)] |
| 900 nM | C[C@H](NC(=O)N[C@@H](c1ccc(C(F)(F)F)cc1)c1ccccc1Br)C(F)(F)F [Example 154, 1-((S)-(2-bromophenyl) (4-(trifluoro-methyl)-phenyl)-methyl)-3-((S)-1,1,1-trifluoro-propan-2-yl)-urea] |
| 811 nM | O=C(Nc1cccnc1)N[C@@H](c1ccc2ncccc2c1)c1ncccc1C(F)(F)F [Example 17, (S)-1-(pyridin-3-yl)-3-(quinolin-6-yl(3-(trifluoro-methyl)-pyridin-2-yl)-methyl)urea] |
| 767 nM | COc1cccc([C@H](C)NC(=O)N[C@@H](c2ccc(C(F)(F)F)cc2)c2ncccc2C(F)(F)F)c1 [Example 84, 1-((S)-1-(3-methoxy-phenyl)ethyl)-3-((S)-(4-(trifluoro-methyl)-phenyl)(3-(trifluoro-methyl)-pyridin-2-yl)-methyl)urea (2,2,2-trifluoro-acetate)] |
| 739 nM | O=C(NC1CCCc2ccccc21)N[C@@H](c1ccc(C(F)(F)F)cc1)c1ncccc1C(F)(F)F (stereo partly drawn) [Example 185, 1-(1,2,3,4-tetrahydro-naphthalen-1-yl)-3-((S)-(4-(trifluoromethyl)phenyl)(3-(trifluoromethyl)pyridin-2-yl)methyl)urea (2,2,2-trifluoro-acetate)] |
| 407 nM | COc1ncc(NC(=O)N[C@@H](c2ccc(C(F)(F)F)cc2)c2ncccc2C(F)(F)F)cn1 [Example 159, (S)-1-(2-Methoxypyrimidin-5-yl)-3-((4-(trifluoromethyl)-phenyl)(3-(trifluoromethyl)pyridin-2-yl)methyl)urea] |
| 405 nM | Cc1ccccc1CNC(=O)N[C@@H](c1ccc(C(F)(F)F)cc1)c1ncccc1C(F)(F)F [Example 85, (S)-1-(2-methylbenzyl)-3-((4-(trifluoro-methyl)-phenyl)(3-(trifluoro-methyl)-pyridin-2-yl)-methyl)urea (2,2,2-trifluoro-acetate)] |
| 211 nM | O=C(N[C@@H](c1ccc(OC(F)(F)F)c(F)c1)c1ncccc1F)OC1CCOCC1 [Example 176, (S)-tetrahydro-2H-pyran-4-yl ((3-fluoro-4-(trifluoromethoxy)phenyl)(3-fluoropyridin-2-yl)methyl)carbamate] |
| 141 nM | CC(C)[C@H](C)NC(=O)N[C@@H](c1ccc(C(F)(F)F)cc1)c1ncccc1C(F)(F)F [Example 65, 1-((S)-3-methylbutan-2-yl)-3-((S)-(4-(trifluoro-methyl)-phenyl)(3-(trifluoro-methyl)-pyridin-2-yl)-methyl)urea (2,2,2-trifluoro-acetate)] |
| 77 nM | O=C(Nc1cccc2ncccc12)N[C@@H](c1ccc(C(F)(F)F)cc1)c1ncccc1C(F)(F)F [Example 179, (S)-1-(Quinolin-5-yl)-3-((4-(trifluoromethyl)phenyl)(3-(trifluoromethyl)pyridin-2-yl)methyl)urea] |
| 50 nM | Cc1noc(C)c1NC(=O)N[C@@H](c1ccc(C(F)(F)F)cc1)c1ncccc1C(F)(F)F [Example 55, (S)-1-(3,5-dimethylisoxazol-4-yl)-3-((4-(trifluoro-methyl)-phenyl)(3-(trifluoro-methyl)-pyridin-2-yl)-metyl)urea] |
